Source: patent publication US5324726A, “Benzodiazepine analogs” (Merck & Co., Inc., priority 1992, dated 1994)
“Also recorded” adds a separate entry of the source. Square brackets hold non-standard residues; d marks the D form. Peptide text beside a SMILES is read from it. * marks the point of attachment. sY = N[C@@H](Cc1ccc(OS(=O)(=O)O)cc1)C(=O)O; Cbz = O=C(OCc1ccccc1)*; Boc = CC(C)(C)OC(=O)*

Assays:
[1] = target: T1, CCK receptor, brain (cerebral cortex) (Cavia porcellus, UniProt H0VZC5); assay: CCK Receptor Binding (Brain): inhibition of 125I-CCK(-33) binding; parameters: species or system guinea pig (Male Hartley); conditions: guinea pig cerebral cortex membranes
T1 construct: Cerebral cortex was dissected and used as a receptor source; from tissue; host or cells: guinea pig cerebral cortex membranes
T1 sequence (H0VZC5 1-426): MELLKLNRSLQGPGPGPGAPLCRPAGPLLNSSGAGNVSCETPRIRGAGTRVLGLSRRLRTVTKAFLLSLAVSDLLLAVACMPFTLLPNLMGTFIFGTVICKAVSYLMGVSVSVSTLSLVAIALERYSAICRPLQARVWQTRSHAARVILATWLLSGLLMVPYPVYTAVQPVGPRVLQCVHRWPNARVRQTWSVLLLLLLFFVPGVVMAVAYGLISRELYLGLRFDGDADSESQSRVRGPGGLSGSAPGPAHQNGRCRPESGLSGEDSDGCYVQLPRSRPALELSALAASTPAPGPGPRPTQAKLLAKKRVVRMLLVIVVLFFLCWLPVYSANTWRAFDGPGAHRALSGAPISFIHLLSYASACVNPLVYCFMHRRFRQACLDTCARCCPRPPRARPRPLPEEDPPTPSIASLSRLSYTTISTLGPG
Method: 2. CCK Receptor Binding (Brain)
CCK-33 was radiolabeled and the binding was performed according to the description for the pancreas method with modifications according to Saito et al., J. Neurochem. 37:483-490, 1981.
Male Hartley guinea pigs (300-500 g) were sacrificed by decapitation and the brains were removed and placed in ice-cold 50 mM, Tris HCl plus 7.58 g/l Trizma-7.4 (pH 7.4 at 25° C.). Cerebral cortex was dissected and used as a receptor source. Each gram of fresh guinea pig brain tissue was homogenized in 10 ml of Tris/Trizma buffer with a Brinkman polytron PT-10. The homogenates were centrifuged at 42,000 g for 15 minutes. Pellets were resuspended in Tris Buffer, centrifuged as above and resuspended in 200 volumes of binding assay buffer (10 mM N-2-hydroxyethyl-piperazine-N'-2-ethane sulfonic acid (HEPES), 5 mM MgCl2, 0.25 mg/ml bacitracin, 1 mM ethylene glycol-bis-(β-aminoethylether-N,N'-tetraadetic acid) (EGTA), and 0.4% bovine serum albumin (BSA)). […] All assays were run in duplicate or triplicate. The reaction mixtures were incubated at 25° C. for 2 hours and centrifuged in a Beckman Microfuge (4 minutes) immediately after adding 1 ml of ice-cold incubation buffer. The supernatant was aspirated and discarded, pellets were counted with a Beckman gamma 5000.

CCK receptor, pancreas = target: T2, CCK receptor, pancreas (Rattus norvegicus, UniProt P30551); assay: CCK Receptor Binding (Pancreas): inhibition of 125I-CCK(-33) binding; parameters: species or system rat (Male Sprague-Dawley); conditions: protease inhibitors added to the binding assay
T2 construct: The whole pancreas was dissected free of fat tissue and was homogenized; from tissue; host or cells: rat pancreas membranes
T2 sequence (P30551 1-444): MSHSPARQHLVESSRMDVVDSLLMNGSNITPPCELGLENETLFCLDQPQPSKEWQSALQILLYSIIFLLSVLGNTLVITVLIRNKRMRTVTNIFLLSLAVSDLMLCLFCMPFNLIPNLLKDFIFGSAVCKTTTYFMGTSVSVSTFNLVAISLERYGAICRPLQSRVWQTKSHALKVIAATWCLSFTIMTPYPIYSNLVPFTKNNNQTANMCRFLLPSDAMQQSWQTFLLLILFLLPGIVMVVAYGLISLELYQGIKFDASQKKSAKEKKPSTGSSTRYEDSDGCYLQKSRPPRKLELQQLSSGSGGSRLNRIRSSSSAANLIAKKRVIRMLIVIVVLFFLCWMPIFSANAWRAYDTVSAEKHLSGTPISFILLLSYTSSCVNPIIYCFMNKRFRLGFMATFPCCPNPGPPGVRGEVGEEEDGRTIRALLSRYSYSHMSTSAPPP
Method: 1. CCK Receptor Binding (Pancreas)
CCK-33 was radiolabeled with ^125 I-Bolton Hunter reagent (2000 Ci/mmole) as described by Sankara et al. (J. Biol. Chem. 254: 9349-9351, 1979). Receptor binding was performed according to Innis and Snyder (Proc. Natl. Acad. Sci. 77, 6917-6921, 1980) with the minor modification of adding the additional protease inhibitors, phenylmethane sulfonyl fluoride and o-phenanthroline. The latter two compounds have no effect on the ^125 -CCK receptor binding assay.
Male Sprague-Dawley rats (200-350 g) were sacrificed by decapitation. The whole pancreas was dissected free of fat tissue and was homogenized in 20 volumes of ice-cold 50 mM, Tris HCl (pH 7.7 at 25° C.) with a Brinkmann Polytron PT 10. The homogenates were centrifuged at 48,000 g for 10 min. Pellets were resuspended in Tris Buffer, centrifuged as above and resuspended in 200 volumes of binding assay buffer (50 mM Tris HCl, pH 7.7 at 25° C., 5 mM dithiothrietol, 0.1 mM bacitracin, 1.2 mM phenylmethane sulfonyl fluoride and 0.5 mM o-phenanthroline). […] All assays were run in duplicate or triplicate. The reaction mixtures were incubated at 37° C. for 30 minutes and centrifuged in a Beckman Microfuge (4 minutes) immediately after adding 1 ml of ice-cold incubation buffer. The supernatant was aspirated and discarded, pellets were counted with a Beckman gamma 5000. […]

CCK receptor = conditions: background literature; cited from earlier work
gastrin = conditions: background literature; in vitro; cited from earlier work

Row | SMILES | CCK antagonism (in words) (CCK receptor) | also measured
1 | CN1C(=O)[C@@H](NC(=O)c2cc3cc(O)ccc3[nH]2)N=C(c2ccccc2)c2ccccc21 [Example 15, 1,3-Dihydro-3-(5-hydroxyindole-2-carbonylamino)-1-methyl-5-phenyl-2H-1,4-benzodiazepin-2-one] |  | IC50 [1]: 0.91 µM
2 | c1cnc2c(c1)ccc1cccnc12 [o-phenanthroline] |  | effect on the 125-CCK receptor binding assay (CCK receptor, pancreas): no effect
3 | CCCC(=O)Nc1nc2c(ncn2[C@@H]2O[C@@H]3COP(=O)(O)O[C@H]3[C@H]2OC(=O)CCC)c(=O)[nH]1 [dibutyryl cyclic GMP] | the most potent | 
4 | O=S(=O)(F)Cc1ccccc1 [phenylmethane sulfonyl fluoride] |  | effect on the 125-CCK receptor binding assay (CCK receptor, pancreas): no effect
5 | CSCC[C@H](N)C(=O)N[C@@H](CC(=O)O)C(=O)N[C@@H](Cc1ccccc1)C(N)=O [Met-Asp-Phe-NH2] (H-Met-Asp-Phe-NH2) | can function as CCK antagonists | 
6 | CSCC[C@H](NC(=O)[C@H](Cc1ccc(OS(=O)(=O)O)cc1)NC(=O)OCc1ccccc1)C(=O)NCC(=O)N[C@@H](Cc1c[nH]c2ccccc12)C(=O)N[C@@H](CCSC)C(=O)N[C@@H](CC(=O)O)C(N)=O [Cbz-Tyr(SO3 H)-Met-Gly-Trp-Met-Asp-NH2] (Cbz-[sY]MGWMD-NH2) | can function as CCK antagonists; also recorded: partial agonist | 
7 | CCCN(CCC)C(=O)C(CCC(=O)O)NC(=O)c1ccccc1 (centres unmarked) [proglumide] |  | gastrin antagonism (in words) (gastrin): very weak in vitro antagonists
8 | CSCC[C@H](NC(=O)OC(C)(C)C)C(=O)N[C@@H](CC(=O)O)C(=O)N[C@@H](Cc1ccccc1)C(N)=O [Boc-Met-Asp-Phe-NH2] (Boc-Met-Asp-Phe-NH2) | can function as CCK antagonists | 
